{
  "source": "patent US20110044969A1",
  "about": "“Antimicrobial Agents for the Treatment of Campylobacter Species in the Crop of a Bird” (NOFIMA MAT AS, priority 2008, published 2011)",
  "system": "C. jejuni strain 484, strain 523 and strain 534",
  "conditions": "pH 6.0 and 6.5; acid 0.1, 0.01, 0.001, 0.0001%; 48 hours at 42° C. microaerophilic; growth by spectrophotometer; all three strains",
  "method": "Three C. jejuni strains were compared in vitro for sensitivity for benzoic acid and sorbic acid at two different pH values. These strains were C. jejuni strain 484 (from poultry leg), C. jejuni strain 523 (from poultry faeces), and C. jejuni strain 534 (from poultry faeces). Different combinations of pH (6.0 and 6.5) and concentrations of the acids (0.1, 0.01, 0.001, and 0.0001%) were tested in Mueller-Hinton broth (MH) with supplement for Campylobacter (SR232E; Oxoid Ltd., Basingstoke, UK). The strains were incubated in microaerophilic atmosphere for 48 hours at 42° C., and growth was measured by spectrophotometer.\nThree C. jejuni strains were tested for in vitro growth at different combinations of pH (6.0 and 6.5) and concentrations of sorbic- and benzoic acid (0.1, 0.01, 0.001, and 0.0001%).",
  "data": [
    {"compound": "C/C=C/C=C/C(=O)O", "note": "[sorbic acid]", "values": [
      {"measurement": "in vitro growth reduction of C. jejuni", "result": "highest growth reduction"}
    ]}
  ]
}
